{"source": "patent US4892876A", "about": "“Method for inhibiting HIV and an pharmaceutical composition therefor” (Nippon Kayaku Kabushiki Kaisha, priority 1987, dated 1990)", "key": {"[1]": {"test": "Toxicity, general statement including repetitive administration", "format": "in vivo"}, "MT-4 cell": {"test_system": "MT-4 cell", "test": "Cytotoxic effect on MT-4 cell without virus", "format": "cell-based", "conditions": "at concentration of 30 ug/ml", "procedure": "(§1) About 50,000 cells/ml of MT-4 cell was introduced into a tray having 24 holes. Further, 100 ul of a solution containing a predetermined quantity of oxcetanocin was added, and then it was cultured in a 5% (v/v) carbon dioxide gas incubator at 37° C. for 2 hours. Subsequently, 10^3 to 1.0^4 infective units of HIV were added and cultured for 5 days. Then, the inhibition of cytopathic effect was observed microscopically. Cytotoxic effect of oxcetanocin on MT-4 cell was examined without adding virus according to the above technique."}, "[2]": {"test_system": "HIV (Human Immunodeficiency Virus)", "test": "Inhibition of HIV cytopathic effect in MT-4 cells (microscopic observation)", "format": "cell-based", "procedure": "as §1, with “microscopically.” for “microscopically. Cytotoxic effect of oxcetanocin on MT-4 cell was examined without adding virus according to the above technique.”"}, "[3]": {"test_system": "HIV (Human Immunodeficiency Virus)", "test": "Development of virus antigen in HIV-infected MT-4 cells (fluorescent antibody technique)", "format": "cell-based"}, "mice": {"test_system": "mice", "test": "Toxicity after 1 intraperitoneal administration in mice", "format": "in vivo", "conditions": "1 administration of 800 mg/kg"}}}
{"smiles": "Nc1ncnc2c1ncn2C1OC(CO)C1CO", "note": "(centres unmarked) [Oxcetanocin, oxcetanocin]", "values": [{"measurement": "Toxicity", "setting": "[1]", "value": "slightly toxic"}, {"measurement": "Cytotoxicity (in words)", "setting": "MT-4 cell", "value": "not cytotoxic"}, {"measurement": "Inhibition of cytopathic effect (in words)", "setting": "[2]", "value": "predominantly inhibitory to cytopathic effect"}, {"measurement": "Development of virus antigens (in words)", "setting": "[3]", "value": "very suppressive to development of virus antigens"}, {"measurement": "Toxic sign", "setting": "mice", "value": "Any toxic sign has not been observed"}]}
